For 11 molecules, inhibition results are on record in ChEMBL document CHEMBL5442219.

The inhibition is the change of the read-out against control, counted positive when it falls.

What all share (conditions): Compound concentration 10 µM
Assay [1] concerns the target T1, Alpha-1A adrenergic receptor (Homo sapiens) (UniProt P35348).
T1 sequence (whole entry): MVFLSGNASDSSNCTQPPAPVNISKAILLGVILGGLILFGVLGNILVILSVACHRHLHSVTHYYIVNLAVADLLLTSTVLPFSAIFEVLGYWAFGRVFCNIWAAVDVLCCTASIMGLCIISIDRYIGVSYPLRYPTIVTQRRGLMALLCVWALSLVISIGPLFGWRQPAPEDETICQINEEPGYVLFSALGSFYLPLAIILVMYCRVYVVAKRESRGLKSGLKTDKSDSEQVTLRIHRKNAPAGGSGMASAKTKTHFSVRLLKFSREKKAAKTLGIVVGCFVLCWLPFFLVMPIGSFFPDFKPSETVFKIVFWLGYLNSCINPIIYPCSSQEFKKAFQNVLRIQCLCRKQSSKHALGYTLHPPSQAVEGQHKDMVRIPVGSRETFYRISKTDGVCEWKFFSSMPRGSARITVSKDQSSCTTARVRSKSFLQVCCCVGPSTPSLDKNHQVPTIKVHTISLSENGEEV
Description: PDSP Primary Binding target: ADRA1A - Compounds are tested at 10 uM concentration, plate are incubated at room temperature in the dark for 90 minutes. Reaction are stopped by vacuum filtration onto 0.3% polyethyleneimine soaked filter mats using Filtermate harvester. Scintilation cocktail is then melted onto microwave-dried filters on a hot plate and the radio activity is counted in Microbia counter.

Assay [2] concerns the target Muscarinic acetylcholine receptor M3 (Homo sapiens) (UniProt P20309).
Description: PDSP Primary Binding target: CHRM3 - Compounds are tested at 10 uM concentration, plate are incubated at room temperature in the dark for 90 minutes. Reaction are stopped by vacuum filtration onto 0.3% polyethyleneimine soaked filter mats using Filtermate harvester. Scintilation cocktail is then melted onto microwave-dried filters on a hot plate and the radio activity is counted in Microbia counter.
Assay [3] addresses T2, Muscarinic acetylcholine receptor M4 (Homo sapiens) (UniProt P08173).
T2 sequence (whole entry): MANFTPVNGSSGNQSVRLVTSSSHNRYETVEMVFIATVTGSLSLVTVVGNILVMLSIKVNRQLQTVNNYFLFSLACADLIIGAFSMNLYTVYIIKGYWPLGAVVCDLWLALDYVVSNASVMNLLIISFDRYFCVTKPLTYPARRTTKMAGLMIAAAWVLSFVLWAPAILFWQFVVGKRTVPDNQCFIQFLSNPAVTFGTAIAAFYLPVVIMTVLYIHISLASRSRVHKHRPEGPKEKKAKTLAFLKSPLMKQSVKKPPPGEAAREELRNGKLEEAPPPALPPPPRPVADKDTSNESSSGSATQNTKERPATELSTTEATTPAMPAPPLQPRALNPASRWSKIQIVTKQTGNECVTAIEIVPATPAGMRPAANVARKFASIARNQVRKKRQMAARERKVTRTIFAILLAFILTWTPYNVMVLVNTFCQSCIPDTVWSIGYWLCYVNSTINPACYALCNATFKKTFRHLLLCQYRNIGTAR
Description: PDSP Primary Binding target: CHRM4 - Compounds are tested at 10 uM concentration, plate are incubated at room temperature in the dark for 90 minutes. Reaction are stopped by vacuum filtration onto 0.3% polyethyleneimine soaked filter mats using Filtermate harvester. Scintilation cocktail is then melted onto microwave-dried filters on a hot plate and the radio activity is counted in Microbia counter.

Assay [4] addresses T3, Muscarinic acetylcholine receptor M5 (Homo sapiens) (UniProt P08912).
T3 sequence (whole entry): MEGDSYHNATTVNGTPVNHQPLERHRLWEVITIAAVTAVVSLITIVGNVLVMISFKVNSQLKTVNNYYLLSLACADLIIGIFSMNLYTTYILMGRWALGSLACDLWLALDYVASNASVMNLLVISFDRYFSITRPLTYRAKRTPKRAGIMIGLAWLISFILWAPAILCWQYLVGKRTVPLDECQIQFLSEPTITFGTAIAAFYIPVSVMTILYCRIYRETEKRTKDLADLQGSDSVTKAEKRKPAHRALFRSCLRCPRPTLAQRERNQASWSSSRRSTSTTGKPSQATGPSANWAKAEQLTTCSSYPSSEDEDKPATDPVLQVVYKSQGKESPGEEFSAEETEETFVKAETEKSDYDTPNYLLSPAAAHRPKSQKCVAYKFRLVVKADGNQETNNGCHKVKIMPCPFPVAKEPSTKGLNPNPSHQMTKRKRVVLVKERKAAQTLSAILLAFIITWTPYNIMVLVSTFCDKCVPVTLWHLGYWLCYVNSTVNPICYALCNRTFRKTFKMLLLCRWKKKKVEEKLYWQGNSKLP
Description: PDSP Primary Binding target: CHRM5 - Compounds are tested at 10 uM concentration, plate are incubated at room temperature in the dark for 90 minutes. Reaction are stopped by vacuum filtration onto 0.3% polyethyleneimine soaked filter mats using Filtermate harvester. Scintilation cocktail is then melted onto microwave-dried filters on a hot plate and the radio activity is counted in Microbia counter.

Assay [5] concerns the target D(2) dopamine receptor (Homo sapiens) (UniProt P14416).
Description: PDSP Primary Binding target: DRD2 - Compounds are tested at 10 uM concentration, plate are incubated at room temperature in the dark for 90 minutes. Reaction are stopped by vacuum filtration onto 0.3% polyethyleneimine soaked filter mats using Filtermate harvester. Scintilation cocktail is then melted onto microwave-dried filters on a hot plate and the radio activity is counted in Microbia counter.
Assay [6] deals with 5-hydroxytryptamine receptor 1B (Homo sapiens) (UniProt P28222).
Description: PDSP Primary Binding target: HTR1B - Compounds are tested at 10 uM concentration, plate are incubated at room temperature in the dark for 90 minutes. Reaction are stopped by vacuum filtration onto 0.3% polyethyleneimine soaked filter mats using Filtermate harvester. Scintilation cocktail is then melted onto microwave-dried filters on a hot plate and the radio activity is counted in Microbia counter.
Assay [7] concerns the target 5-hydroxytryptamine receptor 1D (Homo sapiens) (UniProt P28221).
Description: PDSP Primary Binding target: HTR1D - Compounds are tested at 10 uM concentration, plate are incubated at room temperature in the dark for 90 minutes. Reaction are stopped by vacuum filtration onto 0.3% polyethyleneimine soaked filter mats using Filtermate harvester. Scintilation cocktail is then melted onto microwave-dried filters on a hot plate and the radio activity is counted in Microbia counter.
The target in assay [8] is 5-hydroxytryptamine receptor 7 (Homo sapiens) (UniProt P34969).
Description: PDSP Primary Binding target: HTR7 - Compounds are tested at 10 uM concentration, plate are incubated at room temperature in the dark for 90 minutes. Reaction are stopped by vacuum filtration onto 0.3% polyethyleneimine soaked filter mats using Filtermate harvester. Scintilation cocktail is then melted onto microwave-dried filters on a hot plate and the radio activity is counted in Microbia counter.
Assay [9] addresses Sigma non-opioid intracellular receptor 1 (Homo sapiens) (UniProt Q99720).
Description: PDSP Primary Binding target: SIGMAR1 - Compounds are tested at 10 uM concentration, plate are incubated at room temperature in the dark for 90 minutes. Reaction are stopped by vacuum filtration onto 0.3% polyethyleneimine soaked filter mats using Filtermate harvester. Scintilation cocktail is then melted onto microwave-dried filters on a hot plate and the radio activity is counted in Microbia counter.
Assay [10] concerns the target Sodium-dependent noradrenaline transporter (Homo sapiens) (UniProt P23975).
Description: PDSP Primary Binding target: SLC6A2 - Compounds are tested at 10 uM concentration, plate are incubated at room temperature in the dark for 90 minutes. Reaction are stopped by vacuum filtration onto 0.3% polyethyleneimine soaked filter mats using Filtermate harvester. Scintilation cocktail is then melted onto microwave-dried filters on a hot plate and the radio activity is counted in Microbia counter.
For assay [11], the target named is Sodium-dependent dopamine transporter (Homo sapiens) (UniProt Q01959).
Description: PDSP Primary Binding target: SLC6A3 - Compounds are tested at 10 uM concentration, plate are incubated at room temperature in the dark for 90 minutes. Reaction are stopped by vacuum filtration onto 0.3% polyethyleneimine soaked filter mats using Filtermate harvester. Scintilation cocktail is then melted onto microwave-dried filters on a hot plate and the radio activity is counted in Microbia counter.
Assay [12] deals with D(1B) dopamine receptor (Homo sapiens) (UniProt P21918).
Description: PDSP Primary Binding target: DRD5 - Compounds are tested at 10 uM concentration, plate are incubated at room temperature in the dark for 90 minutes. Reaction are stopped by vacuum filtration onto 0.3% polyethyleneimine soaked filter mats using Filtermate harvester. Scintilation cocktail is then melted onto microwave-dried filters on a hot plate and the radio activity is counted in Microbia counter.
In assay [13] the target is Histamine H3 receptor (Homo sapiens) (UniProt Q9Y5N1).
Description: PDSP Primary Binding target: HRH3 - Compounds are tested at 10 uM concentration, plate are incubated at room temperature in the dark for 90 minutes. Reaction are stopped by vacuum filtration onto 0.3% polyethyleneimine soaked filter mats using Filtermate harvester. Scintilation cocktail is then melted onto microwave-dried filters on a hot plate and the radio activity is counted in Microbia counter.
Assay [14] has as its target Beta-1 adrenergic receptor (Homo sapiens) (UniProt P08588).
Description: PDSP Primary Binding target: ADRB1 - Compounds are tested at 10 uM concentration, plate are incubated at room temperature in the dark for 90 minutes. Reaction are stopped by vacuum filtration onto 0.3% polyethyleneimine soaked filter mats using Filtermate harvester. Scintilation cocktail is then melted onto microwave-dried filters on a hot plate and the radio activity is counted in Microbia counter.
The target in assay [15] is T4, Muscarinic acetylcholine receptor M1 (Homo sapiens) (UniProt P11229).
T4 sequence (whole entry): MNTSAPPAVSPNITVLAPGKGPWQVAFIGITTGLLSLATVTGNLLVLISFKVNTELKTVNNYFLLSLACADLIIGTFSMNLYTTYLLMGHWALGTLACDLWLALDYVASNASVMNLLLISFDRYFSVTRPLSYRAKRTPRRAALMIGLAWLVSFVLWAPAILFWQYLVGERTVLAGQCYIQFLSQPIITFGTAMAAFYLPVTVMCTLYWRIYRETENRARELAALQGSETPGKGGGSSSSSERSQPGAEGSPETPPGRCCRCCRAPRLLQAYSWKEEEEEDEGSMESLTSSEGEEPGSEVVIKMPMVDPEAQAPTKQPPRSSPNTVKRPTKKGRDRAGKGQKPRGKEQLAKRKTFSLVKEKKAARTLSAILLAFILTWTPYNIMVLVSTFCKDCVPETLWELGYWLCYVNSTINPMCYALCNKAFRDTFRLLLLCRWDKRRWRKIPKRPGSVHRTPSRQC
Description: PDSP Primary Binding target: CHRM1 - Compounds are tested at 10 uM concentration, plate are incubated at room temperature in the dark for 90 minutes. Reaction are stopped by vacuum filtration onto 0.3% polyethyleneimine soaked filter mats using Filtermate harvester. Scintilation cocktail is then melted onto microwave-dried filters on a hot plate and the radio activity is counted in Microbia counter.

Assay [16] has as its target D(1A) dopamine receptor (Homo sapiens) (UniProt P21728).
Description: PDSP Primary Binding target: DRD1 - Compounds are tested at 10 uM concentration, plate are incubated at room temperature in the dark for 90 minutes. Reaction are stopped by vacuum filtration onto 0.3% polyethyleneimine soaked filter mats using Filtermate harvester. Scintilation cocktail is then melted onto microwave-dried filters on a hot plate and the radio activity is counted in Microbia counter.

5-hydroxytryptamine receptor 1B (Homo sapiens), sequence (P28222 whole entry): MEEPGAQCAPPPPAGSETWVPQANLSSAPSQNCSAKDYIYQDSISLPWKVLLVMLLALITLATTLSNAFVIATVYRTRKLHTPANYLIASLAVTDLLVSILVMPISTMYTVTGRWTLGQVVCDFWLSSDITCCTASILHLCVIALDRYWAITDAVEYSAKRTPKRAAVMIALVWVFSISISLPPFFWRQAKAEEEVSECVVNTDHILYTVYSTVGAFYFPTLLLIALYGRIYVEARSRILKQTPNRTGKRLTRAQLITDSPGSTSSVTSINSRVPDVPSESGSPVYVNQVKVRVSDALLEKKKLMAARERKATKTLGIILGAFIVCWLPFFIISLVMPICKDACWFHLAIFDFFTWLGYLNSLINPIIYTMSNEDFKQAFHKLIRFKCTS
Histamine H3 receptor (Homo sapiens), sequence (Q9Y5N1 whole entry): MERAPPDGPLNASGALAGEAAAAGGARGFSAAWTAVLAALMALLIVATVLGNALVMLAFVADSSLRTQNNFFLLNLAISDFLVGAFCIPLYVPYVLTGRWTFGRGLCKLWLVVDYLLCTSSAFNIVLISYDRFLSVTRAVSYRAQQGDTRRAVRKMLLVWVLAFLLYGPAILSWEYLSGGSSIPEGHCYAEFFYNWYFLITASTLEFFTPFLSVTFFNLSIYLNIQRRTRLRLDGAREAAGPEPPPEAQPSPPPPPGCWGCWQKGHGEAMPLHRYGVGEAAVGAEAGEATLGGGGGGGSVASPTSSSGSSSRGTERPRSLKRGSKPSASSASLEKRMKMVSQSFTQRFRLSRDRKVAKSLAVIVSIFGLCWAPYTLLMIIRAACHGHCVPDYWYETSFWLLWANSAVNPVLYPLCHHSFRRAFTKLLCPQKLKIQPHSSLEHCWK
Sodium-dependent dopamine transporter (Homo sapiens), sequence (Q01959 whole entry): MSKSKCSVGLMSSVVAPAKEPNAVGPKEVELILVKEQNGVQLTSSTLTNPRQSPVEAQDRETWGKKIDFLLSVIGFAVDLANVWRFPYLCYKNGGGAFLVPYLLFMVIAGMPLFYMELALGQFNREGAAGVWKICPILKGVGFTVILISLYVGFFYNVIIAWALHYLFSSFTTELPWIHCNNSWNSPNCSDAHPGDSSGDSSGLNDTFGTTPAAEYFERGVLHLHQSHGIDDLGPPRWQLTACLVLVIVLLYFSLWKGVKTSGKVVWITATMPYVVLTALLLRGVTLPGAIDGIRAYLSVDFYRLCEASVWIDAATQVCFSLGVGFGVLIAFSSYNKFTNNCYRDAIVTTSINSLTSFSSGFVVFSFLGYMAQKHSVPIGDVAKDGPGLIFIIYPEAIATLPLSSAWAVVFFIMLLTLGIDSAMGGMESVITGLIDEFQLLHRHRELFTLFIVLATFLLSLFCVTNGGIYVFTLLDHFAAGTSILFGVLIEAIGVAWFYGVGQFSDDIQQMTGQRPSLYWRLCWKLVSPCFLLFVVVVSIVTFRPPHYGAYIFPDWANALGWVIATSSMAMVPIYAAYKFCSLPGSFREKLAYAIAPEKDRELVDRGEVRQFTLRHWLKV
Beta-1 adrenergic receptor (Homo sapiens), sequence (P08588 whole entry, looked up): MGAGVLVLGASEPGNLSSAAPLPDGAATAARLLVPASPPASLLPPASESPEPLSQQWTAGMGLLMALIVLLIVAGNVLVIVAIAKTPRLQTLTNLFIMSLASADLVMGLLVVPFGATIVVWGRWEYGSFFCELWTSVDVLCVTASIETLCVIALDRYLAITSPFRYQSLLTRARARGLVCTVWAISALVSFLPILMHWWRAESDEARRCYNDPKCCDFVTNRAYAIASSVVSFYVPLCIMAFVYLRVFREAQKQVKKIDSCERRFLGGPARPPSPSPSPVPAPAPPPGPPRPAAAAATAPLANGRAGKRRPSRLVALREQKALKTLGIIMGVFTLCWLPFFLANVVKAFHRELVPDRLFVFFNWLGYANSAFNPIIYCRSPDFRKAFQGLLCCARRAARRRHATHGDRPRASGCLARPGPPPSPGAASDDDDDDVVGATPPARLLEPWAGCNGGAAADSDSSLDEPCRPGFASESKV
D(1B) dopamine receptor (Homo sapiens), sequence (P21918 whole entry): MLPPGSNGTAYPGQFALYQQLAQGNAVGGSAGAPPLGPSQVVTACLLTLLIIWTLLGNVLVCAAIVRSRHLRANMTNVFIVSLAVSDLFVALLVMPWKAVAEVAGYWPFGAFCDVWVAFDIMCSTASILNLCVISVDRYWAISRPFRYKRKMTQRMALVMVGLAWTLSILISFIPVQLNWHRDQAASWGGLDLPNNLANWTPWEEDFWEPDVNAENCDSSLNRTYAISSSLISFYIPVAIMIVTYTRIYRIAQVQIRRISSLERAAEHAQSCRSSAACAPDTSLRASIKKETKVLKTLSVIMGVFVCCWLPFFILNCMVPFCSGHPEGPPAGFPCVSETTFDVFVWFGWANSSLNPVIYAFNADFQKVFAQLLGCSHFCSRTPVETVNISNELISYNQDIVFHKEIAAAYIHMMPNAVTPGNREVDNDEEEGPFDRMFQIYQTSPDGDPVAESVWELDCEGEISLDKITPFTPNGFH
D(2) dopamine receptor (Homo sapiens), sequence (P14416 whole entry): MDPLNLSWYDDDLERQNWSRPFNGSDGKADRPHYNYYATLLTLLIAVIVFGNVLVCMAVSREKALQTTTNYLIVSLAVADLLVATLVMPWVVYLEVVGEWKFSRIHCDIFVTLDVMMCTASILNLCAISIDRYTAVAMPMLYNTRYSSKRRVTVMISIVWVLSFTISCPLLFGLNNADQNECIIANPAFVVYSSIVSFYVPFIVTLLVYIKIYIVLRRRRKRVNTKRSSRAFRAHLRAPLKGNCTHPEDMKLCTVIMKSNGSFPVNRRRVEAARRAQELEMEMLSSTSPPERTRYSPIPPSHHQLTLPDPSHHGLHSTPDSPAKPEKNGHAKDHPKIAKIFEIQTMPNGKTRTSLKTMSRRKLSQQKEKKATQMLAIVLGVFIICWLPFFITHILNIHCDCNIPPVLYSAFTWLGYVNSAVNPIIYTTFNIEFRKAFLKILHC
Muscarinic acetylcholine receptor M3 (Homo sapiens), sequence (P20309 whole entry, looked up): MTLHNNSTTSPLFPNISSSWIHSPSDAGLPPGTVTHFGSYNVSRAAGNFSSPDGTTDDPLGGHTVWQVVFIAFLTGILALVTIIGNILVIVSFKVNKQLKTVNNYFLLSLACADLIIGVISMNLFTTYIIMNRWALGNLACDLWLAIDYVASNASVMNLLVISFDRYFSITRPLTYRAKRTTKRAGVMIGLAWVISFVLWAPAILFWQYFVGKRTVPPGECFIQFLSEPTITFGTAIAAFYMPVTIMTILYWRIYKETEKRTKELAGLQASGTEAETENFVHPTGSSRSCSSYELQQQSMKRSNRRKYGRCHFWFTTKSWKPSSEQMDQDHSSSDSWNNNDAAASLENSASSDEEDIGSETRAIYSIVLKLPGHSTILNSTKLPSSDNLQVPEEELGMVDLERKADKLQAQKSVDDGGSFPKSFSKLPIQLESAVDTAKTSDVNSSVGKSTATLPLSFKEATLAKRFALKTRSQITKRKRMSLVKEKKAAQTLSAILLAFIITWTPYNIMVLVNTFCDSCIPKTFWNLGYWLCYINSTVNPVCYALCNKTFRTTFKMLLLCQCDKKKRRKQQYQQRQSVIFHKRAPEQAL
5-hydroxytryptamine receptor 7 (Homo sapiens), sequence (P34969 whole entry): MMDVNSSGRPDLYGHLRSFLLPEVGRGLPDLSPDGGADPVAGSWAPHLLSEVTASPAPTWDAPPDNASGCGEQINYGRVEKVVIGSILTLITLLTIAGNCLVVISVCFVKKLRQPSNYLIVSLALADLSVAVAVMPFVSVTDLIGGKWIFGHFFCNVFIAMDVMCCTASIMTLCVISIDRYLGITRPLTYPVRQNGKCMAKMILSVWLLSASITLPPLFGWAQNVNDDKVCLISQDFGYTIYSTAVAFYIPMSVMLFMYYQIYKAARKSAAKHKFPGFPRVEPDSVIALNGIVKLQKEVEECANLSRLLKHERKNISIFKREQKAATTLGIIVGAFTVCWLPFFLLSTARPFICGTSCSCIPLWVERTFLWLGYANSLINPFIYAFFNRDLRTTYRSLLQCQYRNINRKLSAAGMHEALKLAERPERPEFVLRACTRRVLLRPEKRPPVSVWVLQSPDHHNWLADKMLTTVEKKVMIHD
D(1A) dopamine receptor (Homo sapiens), sequence (P21728 whole entry): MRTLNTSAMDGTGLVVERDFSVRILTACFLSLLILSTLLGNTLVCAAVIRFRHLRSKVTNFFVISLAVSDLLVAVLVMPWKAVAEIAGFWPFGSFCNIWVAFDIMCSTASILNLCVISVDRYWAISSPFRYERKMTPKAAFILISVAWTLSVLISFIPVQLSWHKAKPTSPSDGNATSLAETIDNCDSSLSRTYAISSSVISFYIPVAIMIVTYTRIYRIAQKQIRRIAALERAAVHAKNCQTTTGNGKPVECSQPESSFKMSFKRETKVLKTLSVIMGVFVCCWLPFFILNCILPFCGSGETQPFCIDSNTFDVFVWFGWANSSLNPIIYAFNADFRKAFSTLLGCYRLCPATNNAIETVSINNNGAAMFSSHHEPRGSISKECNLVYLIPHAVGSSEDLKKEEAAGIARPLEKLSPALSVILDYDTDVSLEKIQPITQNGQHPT
5-hydroxytryptamine receptor 1D (Homo sapiens), sequence (P28221 whole entry): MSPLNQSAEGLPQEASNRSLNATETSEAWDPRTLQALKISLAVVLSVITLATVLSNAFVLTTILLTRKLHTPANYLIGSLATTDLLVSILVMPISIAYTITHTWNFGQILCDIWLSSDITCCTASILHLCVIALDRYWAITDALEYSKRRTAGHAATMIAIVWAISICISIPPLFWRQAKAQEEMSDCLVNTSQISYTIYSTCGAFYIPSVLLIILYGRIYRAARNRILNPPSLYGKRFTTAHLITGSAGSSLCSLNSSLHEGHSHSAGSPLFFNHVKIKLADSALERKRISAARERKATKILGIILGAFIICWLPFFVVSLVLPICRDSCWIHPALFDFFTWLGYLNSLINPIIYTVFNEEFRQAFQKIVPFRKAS
Sigma non-opioid intracellular receptor 1 (Homo sapiens), sequence (Q99720 whole entry): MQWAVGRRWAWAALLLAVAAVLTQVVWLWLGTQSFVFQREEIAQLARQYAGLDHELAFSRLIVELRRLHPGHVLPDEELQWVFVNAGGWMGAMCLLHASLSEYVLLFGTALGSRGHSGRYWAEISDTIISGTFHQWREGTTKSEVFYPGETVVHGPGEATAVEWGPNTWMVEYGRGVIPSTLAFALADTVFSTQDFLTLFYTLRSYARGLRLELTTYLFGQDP

As to `NCCc1c[nH]c2ccc(C(N)=O)cc12`, the inhibition in [1] is -9.81%; in assay [2], 3.95%; in [3], -6.09%; in assay [4], 8.53%; in assay [5], 55.9%; in assay [6] it was 101%. Also, the inhibition in assay [7] was 98.3%; in assay [8], 100%; in assay [9], 20.2%; in assay [10] it was 63.2%; in [11], 44.6%.

Regarding `CCCn1c(=O)c2nc(C34CC5CC(CC3C5)C4)[nH]c2n(CCC)c1=O`, the inhibition in assay [12] was 23.9%; in assay [13], -9.29%; in assay [6] it was 19.3%; in [7], 23.4%; in [8] it was 5.98%; in assay [9], 32.7%. Further, in [11], the inhibition was 50%.

Turning to `Cc1ccc(O)c([C@H](CCN(C(C)C)C(C)C)c2ccccc2)c1`, the inhibition in assay [1] was 0.77%; in [14], -3.65%; in assay [15], 99.2%; in assay [2], 99.8%; in [3] it was 0.61%; in [4], 0%. The inhibition is -4.98% in assay [16]; 42.6% in assay [5]; 4.65% in assay [13]; 25.3% in [6]; 41.2% in assay [7]; 90.9% in [9]. For the same molecule, the inhibition in assay [10] is 29.7%; in assay [11], 16.2%.

Consider `CC(C)(C(=O)O)c1ccc(C(O)CCCN2CCC(C(O)(c3ccccc3)c3ccccc3)CC2)cc1` (configuration not stated), for which the inhibition was -3.2% in assay [3]; 28.9% in assay [16]; 65.8% in assay [5]; 18.3% in [12]; -3.95% in assay [13]; 8.43% in assay [6]. The inhibition in assay [7] was 39.8%; in assay [8], 4.24%; in assay [9], 35.9%; in assay [11] it was 21.9%.

Consider `O=c1ccc2ccc(OCCCCN3CCN(c4cccc5sccc45)CC3)cc2[nH]1`, for which the inhibition in assay [1] was 100%; in [15], 30.3%; in assay [2], 21.4%; in assay [3], 30.5%; in [4] it was 38.2%; in assay [16], 82.6%. Further, the inhibition in assay [5] was 104%; in assay [12] it was 88.1%; in assay [13], 54.5%; in assay [6] it was 99%; in [7], 104%; in assay [8], 101%. Further, the inhibition was 96.6% in assay [10] and 88.2% in assay [11].

`Cc1nn(C)c(C)c1-c1cccc2c1CC[C@H](N(C)C)C2`: the inhibition in assay [1] was 15.3%; in assay [15], 29.3%; in [2], 44.1%; in assay [3], 5.06%; in assay [4], 69.2%; in assay [16] it was 19.8%. The inhibition is 32.7% in assay [5]; 26% in [12]; 91.5% in assay [6]; 95.6% in assay [7]; 94.1% in [8]; 102% in [9]. Also, the inhibition in [10] is -2.38%; in assay [11] it was 37.9%.

Consider `O=C(O)Cn1c(C(=O)Nc2nc(-c3ccccc3Cl)cs2)cc2ccccc21`, for which the inhibition in [14] is 30.9%; in assay [15], 6.86%; in assay [2] it was 0.53%; in [16] it was -2.06%; in assay [5] it was 14.1%; in assay [12], -2.39%. The inhibition in assay [13] was -1.46%; in assay [6] it was 11.2%; in [7], 38.3%; in [9], 9.14%; in assay [11] it was 47.6%.

In the case of `OCc1cc(C(O)CNCCCCCCOCCCCc2ccccc2)ccc1O` (configuration not stated), the inhibition in assay [1] was 77%; in assay [15], 19.1%; in [2], -8.98%; in assay [4] it was 60.2%; in assay [16], 6.76%; in assay [5], 10.9%. Moreover, the inhibition in [12] is 19.6%; in [13] it was 23.3%; in [6], 51.1%; in assay [7], 76.6%; in [8] it was 97.4%; in assay [10] it was 98.7%. Besides, the inhibition in assay [11] was 86.5%.

As for `CN1CCC(=C2c3ccccc3CC(=O)c3sccc32)CC1`, the inhibition was 9.71% in [1]; 64.6% in assay [3]; 93.2% in assay [4]; 82.8% in [16]; 100% in assay [5]; 55.2% in assay [12]. Also, the inhibition in [13] was -7.74%; in assay [6] it was 63.1%; in assay [7], 123%; in [8] it was 90.4%; in assay [9] it was -1.6%; in [10], 45.1%. Further, in assay [11], the inhibition is 20.7%.

Turning to `O=C1N/C(=N/c2ccccc2F)S/C1=C\c1ccc(C(=O)O)cc1`, the inhibition is -2.85% in assay [1]; 9.47% in [14]; 17.1% in assay [15]; -5.5% in assay [2]; 0.9% in [5]; 6.76% in assay [12]. Further, the inhibition in [13] was -4.18%; in [6], -8.69%; in assay [7] it was 19%; in assay [9] it was 17.9%; in [10], 9.3%; in [11] it was 33.1%.

Consider `COc1ccccc1N1CCN(CCCCNC(=O)c2ccc3ccccc3c2)CC1`, for which the inhibition in assay [1] was 98.8%; in assay [2], 3.09%; in [3], 0.77%; in [4], 23.2%; in [16], 73.4%; in [5] it was 91.8%. For the same molecule, the inhibition in assay [13] was 49.6%; in assay [6] it was 93.2%; in [7], 103%; in assay [8], 102%; in assay [9] it was 90.4%; in [10] it was 68.2%. In assay [11], the inhibition was 73.9%.
